Test results from patent US5134137A, “Cephalosporin antibiotics” (The Upjohn Company, priority 1990, dated 1992).
Converted amounts (≈) assume the structure as drawn. Like-named read-outs stand apart in the source and are kept apart here.

How the values were obtained:
Type in all cases: cell-based
Salmonella choleraesuis = assay: MIC, agar dilution, Salmonella choleraesuis; details: Salmonella enterica, read-out: MIC
Method: (§1) Stock solution of each test antibiotic compound were prepared to have a concentration of 2 mg. of the test compound per milliliter in sterile water of 0.1M ammonium acetate solution. The amount of each compound used was adjusted for base compound activity as calculated from the purity data for the selected batch of compound.
(§2) The dilution procedure described by Washington and Sutter [Manual of Clinical Microbiology, 3rd, Edit. (Lennett, E. H. et al, Eds.), pp. 453-458 (1980), American Society for Microbiology, Washington, D.C.] was modified so that serial concentrations of 128 to 0.0625 microgram/ml. in sterile water was obtained. Then 1.5 ml. aliquots of these test antibiotic dilution mixtures are added to 13.5 molten (50° C.) Mueller-Hinton agar. Each resulting mixture is poured into 15×100 mm, sterile Petri plates and allowed to dry at room temperature overnight.
(§3) Test bacterial cultures are maintained at -70° C. on glass beads. [See R. J. Yancey, Jr. et al, Amer. Jr. of Vet. Research, 48, No. 7, pp. 1050-1053, (1987)]. At least one bacteria-laden bead per culture is dropped into one ml. of brain heart infusion (BHI) broth for overnight culture at 37° C. in 5% V/V carbon dioxide in air atmosphere.
(§4) On the data of assay, 2 to 8 drops of the bacterial broth cultures are transferred to fresh BHI broth (1 ml.) and the mixture is incubated for 4 to 6 hours at 37° C. in a 5% V/V carbon dioxide in air atmosphere. The resulting cultures are then diluted to match a 0.5 MacFarland standard and further diluted 1:20 V/V with sterile saline solution.
(§5) A 0.001 ml. drop of the resulting mixture, containing approximately 10^3 to 10^4 colony forming units (CFU) of each test bacteria organism, is dispensed onto the surface of the test antibiotic compound test plates with a Steer's type replicator. The resulting innoculated plates are incubated 16 to 18 hours at 37° C. with a carbon dioxide atmosphere.
as §1, with “Stock solutions” for “Stock solution”
as §2, with “mm.” for “mm,”
as §2, with “for Microbiology.” for “for Microbiology,”, “15×100 mm.” for “15×100 mm,”
as §3, with “culture” for “cultures”
(§6) On the day of assay, 2 to 8 drops of the bacterial broth cultures are transferred to fresh BHI broth (1 ml.) and the mixture is incubated for 4 to 6 hours at 37° C. in a 5% V/V carbon dioxide in air atmosphere. […]

Pasteurella multocida = assay: MIC, agar dilution, Pasteurella multocida; details: Pasteurella multocida; strain UC9581; read-out: MIC
Method: as §1, §2, §3, §4, §5
as §1, with “Stock solutions” for “Stock solution”
as §2, with “mm.” for “mm,”
as §2, with “for Microbiology.” for “for Microbiology,”, “15×100 mm.” for “15×100 mm,”
as §3, with “culture” for “cultures”
as §6

Enterococcus faecalis = assay: MIC, agar dilution, Enterococcus faecalis; details: Enterococcus faecalis; strain UC694; read-out: MIC
Method: as §1, with “Stock solutions” for “Stock solution”
as §2, §3, §4, §5, §1
as §2, with “mm.” for “mm,”
as §2, with “for Microbiology.” for “for Microbiology,”, “15×100 mm.” for “15×100 mm,”
as §3, with “culture” for “cultures”
as §6

Escherichia coli = assay: MIC, agar dilution, Escherichia coli; details: Escherichia coli, read-out: MIC
Method: as §1, §2, §3, §4, §5
as §1, with “Stock solutions” for “Stock solution”
as §2, with “mm.” for “mm,”
as §2, with “for Microbiology.” for “for Microbiology,”, “15×100 mm.” for “15×100 mm,”
as §3, with “culture” for “cultures”
as §6

Streptococcus suis = assay: MIC, agar dilution, Streptococcus suis; details: Streptococcus suis; strain 650-2; read-out: MIC
Method: as §1, §2, §3, §4, §5
as §1, with “Stock solutions” for “Stock solution”
as §2, with “mm.” for “mm,”
as §2, with “for Microbiology.” for “for Microbiology,”, “15×100 mm.” for “15×100 mm,”
as §3, with “culture” for “cultures”
as §6

Streptococcus uberis = assay: MIC, agar dilution, Streptococcus uberis; details: Streptococcus uberis, read-out: MIC
Method: as §1, §2, §3, §4, §5
as §1, with “Stock solutions” for “Stock solution”
as §2, with “mm.” for “mm,”
as §2, with “for Microbiology.” for “for Microbiology,”, “15×100 mm.” for “15×100 mm,”
as §3, with “culture” for “cultures”
as §6

Staphylococcus aureus = assay: MIC, agar dilution, Staphylococcus aureus; details: Staphylococcus aureus, read-out: MIC
Method: as §1, §2, §3, §4, §5
as §1, with “Stock solutions” for “Stock solution”
as §2, with “mm.” for “mm,”
as §2, with “for Microbiology.” for “for Microbiology,”, “15×100 mm.” for “15×100 mm,”
as §3, with “culture” for “cultures”
as §6

Corynebacterium pyogenes = assay: MIC, agar dilution, Corynebacterium pyogenes; details: strain 213-2; read-out: MIC
Method: as §1, §2, §3, §4, §5
as §1, with “Stock solutions” for “Stock solution”
as §2, with “mm.” for “mm,”
as §2, with “for Microbiology.” for “for Microbiology,”, “15×100 mm.” for “15×100 mm,”
as §3, with “culture” for “cultures”
as §6

Streptococcus agalactiae = assay: MIC, agar dilution, Streptococcus agalactiae; details: Streptococcus agalactiae, read-out: MIC
Method: as §1, §2, §3, §4, §5
as §1, with “Stock solutions” for “Stock solution”
as §2, with “mm.” for “mm,”
as §2, with “for Microbiology.” for “for Microbiology,”, “15×100 mm.” for “15×100 mm,”
as §3, with “culture” for “cultures”
as §6

[1] = system: Streptococcus dysgalactiae; assay: MIC, agar dilution, Streptococcus dysgalactiae; details: Streptococcus dysgalactiae; strain UC251; read-out: MIC
Method: as §1, §2, §3, §4, §5
as §1, with “Stock solutions” for “Stock solution”
as §2, with “mm.” for “mm,”
as §2, with “for Microbiology.” for “for Microbiology,”, “15×100 mm.” for “15×100 mm,”
as §3, with “culture” for “cultures”
as §6

Pseudomonas aeruginosa = assay: MIC, agar dilution, Pseudomonas aeruginosa; details: Pseudomonas aeruginosa, ATCC27853; strain ATCC 27853; read-out: MIC
Method: as §1, §2, §3, §4, §5
as §1, with “Stock solutions” for “Stock solution”
as §2, with “mm.” for “mm,”
as §2, with “for Microbiology.” for “for Microbiology,”, “15×100 mm.” for “15×100 mm,”
as §3, with “culture” for “cultures”
as §6

Salmonella typhimurium = assay: MIC, agar dilution, Salmonella typhimurium; details: Salmonella enterica, read-out: MIC
Method: as §1, §2, §3, §4, §5
as §1, with “Stock solutions” for “Stock solution”
as §2, with “mm.” for “mm,”
as §2, with “for Microbiology.” for “for Microbiology,”, “15×100 mm.” for “15×100 mm,”
as §3, with “culture” for “cultures”
as §6

Streptococcus bovis = assay: MIC, agar dilution, Streptococcus bovis; details: Streptococcus equinus; strain UC6281; read-out: MIC
Method: as §1, §2, §3, §4, §5
as §1, with “Stock solutions” for “Stock solution”
as §2, with “mm.” for “mm,”
as §2, with “for Microbiology.” for “for Microbiology,”, “15×100 mm.” for “15×100 mm,”
as §3, with “culture” for “cultures”
as §6

[2] = system: Bordetella bronchiseptica; assay: MIC, agar dilution, Bordetella bronchiseptica; details: Bordetella bronchiseptica; strain UC6313; read-out: MIC
Method: as §1, §2, §3, §4, §5
as §1, with “Stock solutions” for “Stock solution”
as §2, with “mm.” for “mm,”
as §2, with “for Microbiology.” for “for Microbiology,”, “15×100 mm.” for “15×100 mm,”
as §3, with “culture” for “cultures”
as §6

Enterococcus faecium = assay: MIC, agar dilution, Enterococcus faecium; details: Enterococcus faecium; strain UC241; read-out: MIC
Method: as §1, with “Stock solutions” for “Stock solution”
as §2, §3, §4, §5, §1
as §2, with “mm.” for “mm,”
as §2, with “for Microbiology.” for “for Microbiology,”, “15×100 mm.” for “15×100 mm,”
as §3, with “culture” for “cultures”
as §6

Pasteurella hemolytica = assay: MIC (minimum inhibitory concentration), agar dilution, Pasteurella hemolytica; details: Pasteurella, read-out: MIC
Method: as §1, §2, §3, §4, §5
as §1, with “Stock solutions” for “Stock solution”
as §2, with “mm.” for “mm,”
as §2, with “for Microbiology.” for “for Microbiology,”, “15×100 mm.” for “15×100 mm,”
as §3, with “culture” for “cultures”
as §6

Micrococcus luteus = assay: MIC, agar dilution, Micrococcus luteus; details: Micrococcus luteus; strain UC130; read-out: MIC
Method: as §1, §2, §3, §4, §5
as §1, with “Stock solutions” for “Stock solution”
as §2, with “mm.” for “mm,”
as §2, with “for Microbiology.” for “for Microbiology,”, “15×100 mm.” for “15×100 mm,”
as §3, with “culture” for “cultures”
as §6

[3] = CHOLERAESUIS / UC6073, strain UC6073
[4] = CHOLERAESUIS / UC6077, strain UC6077
[5] = TYPHIMURIUM / UC6162, strain UC6162
[6] = TYPHIMURIUM / UC6164, strain UC6164

| Structure (SMILES) | MIC (Salmonella choleraesuis; [3]) [µg/mL] | MIC (Salmonella choleraesuis; [4]) [µg/mL] | MIC (Pasteurella multocida) [µg/mL] | MIC (Enterococcus faecalis) [µg/mL] | MIC (Escherichia coli; strain UC3784) [µg/mL] | MIC (Escherichia coli; strain UC6720) [µg/mL] | MIC (Escherichia coli; strain UC9670) [µg/mL] | MIC (Streptococcus suis) [µg/mL] | MIC (Streptococcus uberis; strain UC3946) [µg/mL] | MIC (Streptococcus uberis; strain UC6159) [µg/mL] | MIC (Staphylococcus aureus; strain UC6093) [µg/mL] | MIC (Staphylococcus aureus; strain UC6097) [µg/mL] | MIC (Staphylococcus aureus; strain UC9203) [µg/mL] | MIC (Corynebacterium pyogenes) [µg/mL] | MIC (Streptococcus agalactiae; strain UC3947) [µg/mL] | MIC (Streptococcus agalactiae; strain UC6892) [µg/mL] | MIC [1] [µg/mL] | MIC (Pseudomonas aeruginosa) [µg/mL] | MIC (Salmonella typhimurium; [5]) [µg/mL] | MIC (Salmonella typhimurium; [6]) [µg/mL] | other results |
| --- | --- | --- | --- | --- | --- | --- | --- | --- | --- | --- | --- | --- | --- | --- | --- | --- | --- | --- | --- | --- | --- |
| CCCCSSCC1=C(C(=O)O)N2C(=O)[C@@H](NC(=O)/C(=N\OC)c3csc(N)n3)[C@H]2SC1 [Example 12] | 32 (≈ 61.8 µM) | 32 (≈ 61.8 µM) | 8 (≈ 15.5 µM) | > 32 | 8 (≈ 15.5 µM) | 16 (≈ 30.9 µM) | 8 (≈ 15.5 µM) | ≤ 0.06 | 0.13 (≈ 0.251 µM) | 8 (≈ 15.5 µM) | 4 (≈ 7.73 µM) | 4 (≈ 7.73 µM) | 4 (≈ 7.73 µM) | 32 (≈ 61.8 µM) | 2 (≈ 3.86 µM) | > 32 | ≤ 0.06 | > 32 | 16 (≈ 30.9 µM) | 32 (≈ 61.8 µM) | MIC (Streptococcus bovis): > 32 µg/mL; MIC [2]: > 32 µg/mL; MIC (Enterococcus faecium): > 32 µg/mL; MIC (Pasteurella hemolytica; strain UC6531): 0.5 µg/mL (≈ 0.966 µM); MIC (Pasteurella hemolytica; strain UC6532): 0.5 µg/mL (≈ 0.966 µM); MIC (Pasteurella hemolytica; strain UC9582): 0.5 µg/mL (≈ 0.966 µM); MIC (Micrococcus luteus): ≤ 0.06 µg/mL |
| CO/N=C(\C(=O)N[C@@H]1C(=O)N2C(C(=O)O)=C(CSSc3ccc([N+](=O)[O-])cc3)CS[C@H]12)c1csc(N)n1 [Example 18] | 2 (≈ 3.43 µM) | 4 (≈ 6.86 µM) | ≤ 0.06 | > 32 | 1 (≈ 1.72 µM) | 2 (≈ 3.43 µM) | 1 (≈ 1.72 µM) | ≤ 0.06 | 0.25 (≈ 0.429 µM) | 8 (≈ 13.7 µM) | 2 (≈ 3.43 µM) | 2 (≈ 3.43 µM) | 2 (≈ 3.43 µM) | 0.25 (≈ 0.429 µM) | ≤ 0.06 | ≤ 0.06 | ≤ 0.06 | > 32 | 4 (≈ 6.86 µM) | 2 (≈ 3.43 µM) | MIC (Streptococcus bovis): ≤ 0.06 µg/mL; MIC [2]: > 32 µg/mL; MIC (Enterococcus faecium): > 32 µg/mL; MIC (Pasteurella hemolytica; strain UC6531): 0.25 µg/mL (≈ 0.429 µM); MIC (Pasteurella hemolytica; strain UC6532): ≤ 0.06 µg/mL; MIC (Pasteurella hemolytica; strain UC9582): ≤ 0.06 µg/mL; MIC (Micrococcus luteus): ≤ 0.06 µg/mL |
